In the NIST ThermoML archive (doi:10.1016/j.fluid.2018.05.028):
± gives the expanded uncertainty stated by the source.

Test: xn = mol fraction of the nth substance listed
Conditions: 101 kPa, Liquid; for speed of sound: Single path-length method; for mass density: Vibrating tube method; for viscosity: Concentric cylinders viscometry

CCCCCCCCCCCCCCCC [hexadecane] + CCCCO
Conditions | mass density, 318.15 K [kg/m3] | mass density, 323.15 K [kg/m3] | mass density, 328.15 K [kg/m3] | speed of sound, 318.15 K [m/s] | speed of sound, 323.15 K [m/s] | speed of sound, 328.15 K [m/s] | viscosity, 323.15 K [mPa·s] | viscosity, 328.15 K [mPa·s] | viscosity, 333.15 K [mPa·s]
x2 = 0 | 756.05 ± 0.83 | 752.61 ± 0.83 | 749.18 ± 0.83 | – | 1247.1 ± 1 | 1229.3 ± 1 | 1.823 ± 0.014 | 1.671 ± 0.014 | 1.537 ± 0.013
x2 = 0.1 | 756.2 ± 0.83 | 752.66 ± 0.83 | 749.13 ± 0.83 | – | 1238.6 ± 0.96 | 1220.8 ± 0.96 | 1.707 ± 0.014 | 1.563 ± 0.013 | 1.437 ± 0.012
x2 = 0.2 | 757.02 ± 0.82 | 753.42 ± 0.82 | 749.82 ± 0.82 | – | 1232.1 ± 0.91 | 1214.2 ± 0.91 | 1.654 ± 0.013 | 1.514 ± 0.013 | 1.389 ± 0.012
x2 = 0.3 | 758.17 ± 0.82 | 754.53 ± 0.82 | 750.87 ± 0.82 | – | 1225.7 ± 0.86 | 1207.7 ± 0.86 | 1.6 ± 0.013 | 1.464 ± 0.012 | 1.343 ± 0.012
x2 = 0.4 | 759.66 ± 0.82 | 755.97 ± 0.82 | 752.26 ± 0.82 | – | 1218.8 ± 0.81 | 1200.8 ± 0.81 | 1.556 ± 0.012 | 1.422 ± 0.012 | 1.303 ± 0.011
x2 = 0.5 | 761.63 ± 0.82 | 757.89 ± 0.82 | 754.13 ± 0.82 | 1229.5 ± 0.76 | 1211.4 ± 0.76 | 1193.4 ± 0.76 | 1.517 ± 0.012 | 1.383 ± 0.011 | 1.266 ± 0.011
x2 = 0.6 | 764.24 ± 0.82 | 760.45 ± 0.82 | 756.63 ± 0.82 | 1221.4 ± 0.71 | 1203.4 ± 0.71 | 1185.4 ± 0.71 | 1.479 ± 0.012 | 1.346 ± 0.011 | 1.23 ± 0.011
x2 = 0.7 | 767.71 ± 0.82 | 763.86 ± 0.82 | 759.99 ± 0.82 | 1212.1 ± 0.66 | 1194.2 ± 0.7 | 1176.4 ± 0.66 | 1.452 ± 0.011 | 1.317 ± 0.011 | –
x2 = 0.8 | 772.49 ± 0.81 | 768.59 ± 0.81 | 764.66 ± 0.81 | 1201.3 ± 0.61 | 1183.6 ± 0.61 | 1166 ± 0.61 | 1.435 ± 0.011 | 1.297 ± 0.011 | –
x2 = 0.9 | 779.38 ± 0.81 | 775.44 ± 0.81 | 771.46 ± 0.81 | 1188.2 ± 0.57 | 1171 ± 0.57 | 1153.8 ± 0.57 | 1.404 ± 0.011 | 1.264 ± 0.011 | –
